This note sets out measurements from ChEMBL document CHEMBL2331514, “Structure-based design and synthesis of novel pseudosaccharine derivatives as antiproliferative agents and kinase inhibitors” (Eur J Med Chem, 2013).

Assay type in all cases: functional
In one assay the test system is RPMI-8226. Nature of the assay: Cytotoxicity against human RPMI8226 cells assessed as growth inhibition at 10 uM after 48 hrs by SRB assay. The settings on record: RPMI-8226, 48 h, read-out: GI.
The subject of the next assay is SN12C. Nature of the assay: Cytotoxicity against human SN12C cells assessed as growth inhibition at 10 uM after 48 hrs by SRB assay. The settings on record: read-out: GI. Background: In SRB staining, fixed cells bind dye roughly in proportion to their protein.
A further assay relates to SK-OV-3. The assay can be described thus: Cytotoxicity against human SKOV3 cells assessed as growth inhibition at 10 uM after 48 hrs by SRB assay. The following applies: SK-OV-3, 48 h, read-out: GI.
The next assay relates to SK-MEL-5. The assay can be described thus: Cytotoxicity against human SK-MEL-5 cells assessed as growth inhibition at 10 uM after 48 hrs by SRB assay. The settings on record: SK-MEL-5, 48 h, read-out: GI.
For a further assay, the system named is MDA-MB-435. Nature of the assay: Cytotoxicity against human MDA-MB-435 cells assessed as growth inhibition at 10 uM after 48 hrs by SRB assay. The following applies: MDA-MB-435, 48 h, read-out: GI.
In a further assay the test system is T47D. Nature of the assay: Cytotoxicity against human T47D cells assessed as growth inhibition at 10 uM after 48 hrs by SRB assay. The following applies: read-out: GI.
The test system of the next assay is KM12. Nature of the assay: Cytotoxicity against human KM12 cells assessed as growth inhibition at 10 uM after 48 hrs by SRB assay. The settings on record: KM12, 48 h, read-out: GI.
In a further assay the test system is HOP-92. Nature of the assay: Cytotoxicity against human HOP92 cells assessed as growth inhibition at 10 uM after 48 hrs by SRB assay. The settings on record: HOP-92, 48 h, read-out: GI.
In the next assay the test system is SW-620. Nature of the assay: Cytotoxicity against human SW620 cells assessed as growth inhibition at 10 uM after 48 hrs by SRB assay. The settings on record: SW-620, 48 h, read-out: GI.
The next assay has as its system MDA-MB-231. Nature of the assay: Cytotoxicity against human MDA-MB-231 cells assessed as growth inhibition at 10 uM after 48 hrs by SRB assay. The settings on record: MDA-MB-231, 48 h, read-out: GI.
Assay [1] can be described thus: Cytotoxicity against human EKVX cells assessed as growth inhibition at 10 uM after 48 hrs by SRB assay. The following applies: read-out: GI.
The next assay relates to NCI-H226. Nature of the assay: Cytotoxicity against human NCI-H226 cells assessed as growth inhibition at 10 uM after 48 hrs by SRB assay. The following applies: NCI-H226, 48 h, read-out: GI.
Another assay concerns HT-29. Nature of the assay: Cytotoxicity against human HT-29 cells assessed as growth inhibition at 10 uM after 48 hrs by SRB assay. The settings on record: HT-29, 48 h, read-out: GI.
Another assay relates to A549. Nature of the assay: Cytotoxicity against human A549/ATCC cells assessed as growth inhibition at 10 uM after 48 hrs by SRB assay. The settings on record: A549, 48 h, read-out: GI.
A further assay concerns HCC 2998. The assay can be described thus: Cytotoxicity against human HCC2998 cells assessed as growth inhibition at 10 uM after 48 hrs by SRB assay. The following applies: HCC 2998, 48 h, read-out: GI.
In the next assay the test system is SNB-75. Nature of the assay: Cytotoxicity against human SNB75 cells assessed as growth inhibition at 10 uM after 48 hrs by SRB assay. The following applies: SNB-75, 48 h, read-out: GI.
Another assay relates to HCT-116. Nature of the assay: Cytotoxicity against human HCT116 cells assessed as growth inhibition at 10 uM after 48 hrs by SRB assay. The following applies: HCT-116, 48 h, read-out: GI.
Another assay concerns OVCAR-5. Nature of the assay: Cytotoxicity against human OVCAR5 cells assessed as growth inhibition at 10 uM after 48 hrs by SRB assay. The settings on record: OVCAR-5, 48 h, read-out: GI.
For a further assay, the system named is IGROV-1. Nature of the assay: Cytotoxicity against human IGROV1 cells assessed as growth inhibition at 10 uM after 48 hrs by SRB assay. The following applies: IGROV-1, 48 h, read-out: GI.
A further assay concerns ACHN. The assay can be described thus: Cytotoxicity against human ACHN cells assessed as growth inhibition at 10 uM after 48 hrs by SRB assay. The following applies: read-out: GI.
A short description of assay [2]: Cytotoxicity against human NCI-ADR-RES cells assessed as growth inhibition at 10 uM after 48 hrs by SRB assay. The following applies: read-out: GI.

Each structure is given as a SMILES string.

As for `O=C(Nc1ccc(OC2=NS(=O)(=O)c3ccccc32)cc1)Nc1ccccc1Cl`, the inhibition of growth at 10 µM in the assay on RPMI-8226 was 7%; in the assay on SN12C it was 17%; in the assay with SK-OV-3, -7%; with SK-MEL-5, 9%; with MDA-MB-435, 5%; in the assay on T47D, 8%. Further, the inhibition of growth at 10 µM is 10% in the assay with KM12; -3% with HOP-92; -5% with SW-620; 63% with MDA-MB-231; -3% in [1]; 25% in the assay on NCI-H226. The inhibition of growth at 10 µM in the assay with HT-29 was 4%; in the assay with A549 it was 7%; in the assay with HCC 2998, -5%; in the assay on SNB-75, 18%; in the assay with HCT-116, 1%; with OVCAR-5, 3%. For the same compound, the inhibition of growth at 10 µM in the assay on IGROV-1 amounted to 0%; in the assay on ACHN it was 21%; in assay [2] it was 13%.
As for `Cc1ccc(NC2=NS(=O)(=O)c3ccc(NC(=O)CCC(=O)O)cc32)cc1`, the inhibition of growth at 10 µM in the assay with RPMI-8226 was 7%; in the assay on SN12C, 6%; in the assay on SK-OV-3 it was -11%; in the assay with SK-MEL-5, 5%; in the assay with MDA-MB-435, 0%; with T47D, 5%. Further, the inhibition of growth at 10 µM is -13% in the assay on KM12; 9% with HOP-92; 1% in the assay on SW-620; 6% with MDA-MB-231; -4% in assay [1]; 13% with NCI-H226. Further, the inhibition of growth at 10 µM was -3% in the assay on HT-29; -7% in the assay on A549; -4% with HCC 2998; 21% with SNB-75; -6% in the assay with HCT-116; 1% in the assay on OVCAR-5. In addition, the inhibition of growth at 10 µM in the assay with IGROV-1 is -12%; with ACHN, -5%; in assay [2], -3%.
Regarding `COc1ccc(NC(=O)Nc2ccc(NC3=NS(=O)(=O)c4ccccc43)cc2)cc1`, the inhibition of growth at 10 µM in the assay on RPMI-8226 is 4%; with SN12C, 5%; with SK-OV-3 it was -20%; in the assay with SK-MEL-5, 14%; with MDA-MB-435, 6%; in the assay with T47D, 5%. Further, the inhibition of growth at 10 µM with KM12 is -1%; in the assay on HOP-92, -13%; with SW-620 it was -6%; in the assay on MDA-MB-231, -13%; in [1], 2%; in the assay on NCI-H226, -3%. The inhibition of growth at 10 µM in the assay on HT-29 was 17%; in the assay on A549 it was -10%; with HCC 2998 it was -3%; with SNB-75, 1%; in the assay with HCT-116 it was 5%; in the assay with OVCAR-5 it was -10%. Also, the inhibition of growth at 10 µM was -6% in the assay on IGROV-1, -3% with ACHN and -6% in [2].
Take `O=C(Nc1ccccc1)Nc1ccc(NC2=NS(=O)(=O)c3ccccc32)cc1`: the inhibition of growth at 10 µM in the assay on RPMI-8226 was -2%; in the assay on SN12C it was 0%; in the assay on SK-OV-3, -7%; with SK-MEL-5, 6%; in the assay with MDA-MB-435 it was 0%; in the assay with T47D it was 10%. In addition, the inhibition of growth at 10 µM in the assay with KM12 is -6%; in the assay on HOP-92 it was 1%; in the assay with SW-620 it was -4%; with MDA-MB-231, 11%; in [1], 0%; with NCI-H226, 10%. The inhibition of growth at 10 µM is 1% with HT-29; 3% with A549; -7% with HCC 2998; 19% with SNB-75; -6% with HCT-116; -2% in the assay with OVCAR-5. For the same compound, the inhibition of growth at 10 µM was -14% in the assay on IGROV-1, -8% in the assay with ACHN and -2% in assay [2].
As to `O=C(Nc1ccc(NC2=NS(=O)(=O)c3ccccc32)cc1)Nc1cccc(Br)c1`, the inhibition of growth at 10 µM was 8% in the assay on RPMI-8226; 21% in the assay on SN12C; 4% in the assay with SK-OV-3; 45% in the assay on SK-MEL-5; 11% in the assay with MDA-MB-435; 60% in the assay with T47D. In addition, the inhibition of growth at 10 µM was 88% in the assay with KM12; 36% in the assay on HOP-92; -2% in the assay with SW-620; 47% in the assay with MDA-MB-231; -4% in assay [1]; 20% in the assay with NCI-H226. The inhibition of growth at 10 µM stood at 11% in the assay with HT-29; 4% in the assay on A549; 5% with HCC 2998; 15% in the assay on SNB-75; 22% with HCT-116; 13% with OVCAR-5. Besides, the inhibition of growth at 10 µM is -10% in the assay with IGROV-1, 3% in the assay on ACHN and 8% in assay [2].
For `O=C(Nc1ccccc1)Nc1ccc(OC2=NS(=O)(=O)c3ccccc32)cc1`, the inhibition of growth at 10 µM in the assay on RPMI-8226 is 36%; in the assay on SN12C, 18%; in the assay on SK-OV-3 it was -13%; in the assay with SK-MEL-5 it was 17%; in the assay with MDA-MB-435, 15%; in the assay with T47D, 23%. The inhibition of growth at 10 µM with KM12 is 58%; with HOP-92, 2%; in the assay on SW-620, 2%; in the assay with MDA-MB-231 it was 63%; in assay [1], -3%; in the assay with NCI-H226 it was 20%. Further, the inhibition of growth at 10 µM amounted to 52% in the assay on HT-29; 22% in the assay on A549; 20% in the assay on HCC 2998; 22% in the assay with SNB-75; 10% in the assay with HCT-116; 13% with OVCAR-5. Further, the inhibition of growth at 10 µM in the assay on IGROV-1 is -12%; with ACHN it was 12%; in [2], 21%.
